Square brackets hold non-standard residues; d marks the D form. Ends that are not written are not given here. Peptide text beside a SMILES is read from it.
Tests used:
HylA = target: T1, HylA (Cutibacterium acnes, UniProt A0A2B7ICX0); experiment: Microscale thermophoresis (MST) measurement of HylA binding to peptide inhibitors; parameters: species or system C. acnes
T1 construct: HylA (41-805) were cloned into; His6 (N); MBP (N); made in house; host or cells: E. coli BL21(DE3) pLysS
Experimental: The Monolith NT.115 instrument (Nanotemper Technologies, München, Germany) was used to measure the binding of peptide inhibitors to the HylA. For the MST experiment, the HylA is fluorescently labeled by cysteine labeling by using the Monolith protein labeling kit RED-MALEIMIDE 2nd generation (Catalog Number: L014). The assay is performed in 100 mM Sodium acetate buffer pH 5.3 supplied with 0.05% Tween-20. A serial dilution of the 1932 peptide (50 μM through 1.5 nM) was titrated against 30 nM fluorescent labeled HylA. For the titration, 10 μL of each concentration of the peptide was mixed with 10 μL of the fluorescent labeled HylA. The MST measurement settings include medium MST power, 40% excitation power, Nano-RED excitation type and 25° C. thermostat temperature. Affinity of the peptide binding to HylA was determined by the MO.Affinity Analysis Software (Nanotemper Technologies, München, Germany).

rHylA = target: T2, rHylA (Cutibacterium acnes, UniProt A0A2B7ICX0); experiment: HA digested with rHylA in presence of inhibitor, digest applied to HaCaT cells, IL-6 by ELISA; format: cell-based, C. acnes; settings: inhibitor 5 or 10 μM, HA 2 mg/ml digested with rHylA 24 hr, IL-6 in HaCaT culture supernatant
T2 construct: HylA (41-805) were cloned into; His6 (N); MBP (N); made in house; host or cells: E. coli BL21(DE3) pLysS
Experimental: HaCaT cells (ATCC) were cultured in complete DMEM media (Catalog no. 10-013-CV, Corning incorporated, USA) plus 10% heat-inactivated FBS in 5% C02 at 37° C. Before cell stimulation with digested HA (40 μg), HaCaT cells were seeded in 96-wells Falcon® 96-well tissue culture plate (Catalog no. #353072, corning incorporated, USA) at a concentration of 10^5 cells/ml and incubated in 5% CO2 at 37° C. for 6 hr, followed by washing with DMEM media and cell stimulation.
For BMDMs and HaCaT cell assays, an equivalent of 40 μg of HA digest was used to stimulate 10^5 cells for 8 and 16 hr, respectively. Cells were plated in a Falcon® 96-well tissue culture plate and cultured in 200 μl of complete RPMI medium supplemented with 10% FBS and 1× penicillin-streptomycin antibiotics solution. […]
IL-1β, IL-6, and TNF-α cytokine levels in skin homogenates, previously stored at −80° C., were measured by a solid-phase sandwich ELISA using commercially available mouse cytokine ELISA kits (Biolegend, San Diego, CA, USA). […] The plates were developed and read at optical density (OD) of 450 nm with a wavelength correction set to 570 nm in a multimode microplate reader (PerkinElmer, Waltham, MA, USA). […]

HL043PA1 strain = experiment: Mouse acne model, inhibitor co-injected i.d. with acne-associated HL043PA1 strain; format: in vivo, C. acnes; settings: CD1 mice, 10 μg inhibitor co-injected i.d. with 2×10^7 CFU HL043PA1, disease score and skin cytokines 24 hr post-infection
Experimental: To model human acne disease, 8 weeks-old mice were i.d. infected with C. acnes strains (2×10^7 CFU in 50 μl volume of BHI media), followed by the topical application of synthetic sebum daily as described previously. i.d. infections were performed under vaporized Isoflurane (Fluriso, Vet One) anesthesia. Synthetic sebum was made by mixing fatty acid (17% oleic acid; Catalog no. #01008, Millipore Sigma), triglyceride (45% triolein; Catalog no. #ICN10312201, FisherScientific), wax monoester (25% jojoba oil, Trader Joe), and squalene (13%; Catalog no. #AC215351000, FisherScientific). One or two days after infection, disease score was assessed and the mice were euthanized by C02. Skin lesions were aseptically excised and harvested in phosphate buffer saline (PBS, pH 7.4). […]
Gross skin pathology was scored based on tabulation of the following: Erythematous change (no=0, mild=1, moderate 2, and marked=3); papule (flat=0, small=1, large=2. And extra-large=3) based on a protocol modified from.
For in vivo experiments, inhibitors (10 μg) were injected along with C. acnes strains (2×10^7 CFU) i.d. into CD1 mice, followed by the topical application of sebum. After 24 hr, bacterial count (CFU/ml), size of the skin lesions and proinflammatory cytokines (IL-1β, IL-6 and TNF-α) in skin lesions were measured. […]

[1] = target: C. acnes hyaluronidase HylA, recombinant (rHylA), fluorescently labeled (C. acnes); experiment: not given; MST against fluorescent labeled HylA per the methods
[2] = target: C. acnes hyaluronidase HylA, recombinant (rHylA), fluorescently labeled (C. acnes); experiment: Microscale thermophoresis (MST), peptide titrated against fluorescent labeled HylA
[3] = target: T3, C. acnes hyaluronidase HylA, recombinant (rHylA), fluorescently labeled (C. acnes, UniProt A0A2B7ICX0 41-805, Fluorescently labelled on cysteine(s) with the RED-MALEIMIDE 2nd generation dye. Which cysteine carries the dye is not stated.); experiment: microscale thermophoresis (MST), peptide titrated against fluorescently labeled HylA, Kd model fit, mean +/- SD of triplicates
T3 construct: TEV cleavage is described only for the crystallization preparation; not shown: N-terminal His6-MBP-TEV tag from the pET His6 MBP TEV LIC vector
T3 sequence: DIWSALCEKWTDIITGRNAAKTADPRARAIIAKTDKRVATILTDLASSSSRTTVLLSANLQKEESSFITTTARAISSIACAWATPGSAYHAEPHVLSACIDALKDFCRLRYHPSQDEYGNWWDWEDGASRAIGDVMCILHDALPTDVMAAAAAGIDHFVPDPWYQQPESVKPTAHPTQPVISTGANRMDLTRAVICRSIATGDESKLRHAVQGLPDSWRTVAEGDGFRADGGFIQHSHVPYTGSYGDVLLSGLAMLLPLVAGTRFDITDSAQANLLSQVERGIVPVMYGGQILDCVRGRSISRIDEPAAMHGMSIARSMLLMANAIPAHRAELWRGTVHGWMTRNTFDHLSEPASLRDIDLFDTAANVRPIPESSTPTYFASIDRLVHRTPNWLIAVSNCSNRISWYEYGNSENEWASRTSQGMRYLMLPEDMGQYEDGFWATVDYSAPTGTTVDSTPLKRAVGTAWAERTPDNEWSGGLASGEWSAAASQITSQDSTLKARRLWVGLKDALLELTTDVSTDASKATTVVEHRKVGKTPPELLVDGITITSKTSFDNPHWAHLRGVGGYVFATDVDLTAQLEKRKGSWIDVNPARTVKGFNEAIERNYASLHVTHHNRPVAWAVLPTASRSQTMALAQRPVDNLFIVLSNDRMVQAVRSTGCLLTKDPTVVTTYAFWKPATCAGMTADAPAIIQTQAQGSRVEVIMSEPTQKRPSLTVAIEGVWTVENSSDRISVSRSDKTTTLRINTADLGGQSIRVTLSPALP

[4] = target: T3, C. acnes hyaluronidase HylA, …; experiment: Microscale thermophoresis (MST), peptide titrated against fluorescent labeled HylA
[5] = target: T3, C. acnes hyaluronidase HylA, …; experiment: not given; MST against fluorescent labeled HylA per the methods
[6] = binding constant (KD), MST, peptide titrated against 30 nM fluorescent labeled HylA, values in running text and figure legend

Q: `NC(=O)[C@@H](CCC(=O)O)NC(=O)[C@H](CO)NC(=O)[C@@H](CCC(=O)O)NC(=O)[C@H](Cc1ccc(O)cc1)NC(=O)[C@@H](CCC(=O)O)NC(=O)[C@H](CC(=O)O)NC(=O)[C@@H](N)Cc1ccc(O)cc1` [i93, Tyr-Asp-dGlu-Tyr-dGlu-Ser-dGlu-NH2] (H-YD[dE]Y[dE]S[dE]-NH2; N-terminus assumed) was tested. Which Kd (HylA; KD, table Peptides' properties) did it give?
A: The Kd was 140 µM.

Q: And the Kd (HylA; [6])?
A: Its Kd is 911 µM.

Q: With `N[C@@H](Cc1ccc(O)cc1)C(=O)N[C@@H](CC(=O)O)C(=O)N[C@H](CCC(=O)O)C(=O)N[C@@H](Cc1ccc(O)cc1)C(=O)N[C@H](CCC(=O)O)C(=O)N[C@@H](CO)C(=O)N[C@H](CCC(=O)O)C(=O)O` [i94, Tyr-Asp-dGlu-Tyr-dGlu-Ser-dGlu-OH] (H-YD[dE]Y[dE]S[dE]-OH; N-terminus assumed) as the molecule, how does the Kd (HylA; KD, table Peptides' properties) read?
A: Its Kd is 4.3 µM.

Q: For `NC(=O)[C@@H](CCC(=O)O)NC(=O)[C@H](CO)NC(=O)[C@H](CC(=O)O)NC(=O)[C@H](Cc1ccc(O)cc1)NC(=O)[C@@H](CCC(=O)O)NC(=O)[C@H](CC(=O)O)NC(=O)[C@H](Cc1ccc(O)cc1)NC(=O)[C@@H](CCC(=O)O)NC(=O)[C@H](CO)NC(=O)[C@@H](CCC(=O)O)NC(=O)[C@H](Cc1ccc(O)cc1)NC(=O)[C@@H](CCC(=O)O)NC(=O)[C@H](CC(=O)O)NC(=O)[C@@H](N)Cc1ccc(O)cc1` [i932, Tyr-Asp-dGlu-Tyr-dGlu-Ser-dGlu-Tyr-Asp-dGlu-Tyr-Asp-Ser-dGlu-NH2] (H-YD[dE]Y[dE]S[dE]YD[dE]YDS[dE]-NH2; N-terminus assumed), which efficacy in vitro (rHylA) is on record?
A: Its efficacy in vitro is “highest efficacy”.

Q: And the efficacy in vivo (HL043PA1 strain)?
A: The efficacy in vivo was “highest efficacy”.

Q: And the Kd (HylA; [6])?
A: Its Kd is 3.06 µM.

Q: And the Kd (HylA; binding constant (KD), MST, peptide titrated against fluorescent labeled HylA, value)?
A: The Kd was 0.0216 µM.

Q: How did the Kd [1] turn out when “peptide i93, Tyr-Asp-dGlu-Tyr-dGlu-Ser-dGlu-NH2” was run?
A: Its Kd is 140 µM.

Q: What about the Kd [2] of the same molecule?
A: Its Kd is 912 µM.

Q: For “peptide i94, Tyr-Asp-dGlu-Tyr-dGlu-Ser-dGlu-OH”, which Kd [1] is on record?
A: Its Kd is 4.3 µM.

Q: YCD[dE]Y[dE]S[dE]CY-NH2 (also: cyclic peptide with Cys2 and Cys9, mode of cyclization not given here, also called 1933) [peptide i933, Tyr-Cys-Asp-dGlu-Tyr-dGlu-Ser-dGlu-Cys-Tyr-NH2] was tested. Which “EC50 (read off the curve)” value [3] did it give?
A: The value was roughly 2 µM.

Q: And the Kd [4]?
A: The Kd was 1.76 µM.

Q: And the Kd [5]?
A: Its Kd is 292 µM.

B1: peptide i932, Tyr-Asp-dGlu-Tyr-dGlu-Ser-dGlu-Tyr-Asp-dGlu-Tyr-Asp-Ser-dGlu-NH2 (peptide)
peptide: YD[dE]Y[dE]S[dE]YD[dE]YDS[dE]-NH2
modifications: N-terminus assumed
SMILES: NC(=O)[C@@H](CCC(=O)O)NC(=O)[C@H](CO)NC(=O)[C@H](CC(=O)O)NC(=O)[C@H](Cc1ccc(O)cc1)NC(=O)[C@@H](CCC(=O)O)NC(=O)[C@H](CC(=O)O)NC(=O)[C@H](Cc1ccc(O)cc1)NC(=O)[C@@H](CCC(=O)O)NC(=O)[C@H](CO)NC(=O)[C@@H](CCC(=O)O)NC(=O)[C@H](Cc1ccc(O)cc1)NC(=O)[C@@H](CCC(=O)O)NC(=O)[C@H](CC(=O)O)NC(=O)[C@@H](N)Cc1ccc(O)cc1
notes: Designed by structure-based virtual screening against the HylA crystal structure; also called 1932
Q: Which Kd [5] does the source give for B1 here?
A: Its Kd is 3.1 µM.
